Test results reported in PMC6943623, “Antileishmanial Compounds Isolated from Psidium Guajava L. Using a Metabolomic Approach” (Molecules, 2019).
In brackets after ≈: the same amount, converted by molar mass. Where two headings read alike, the source gives them in different places.

Tests used:
[1] = test system: Leishmania; parameters: method as in PMID 31571946; conditions: cited from earlier work
[2] = test system: L. infantum axenic amastigotes; assay: Antileishmanial activity on axenic amastigotes (luciferase assay); format: cell-based, L. infantum strain MHOM/MA/67/ITMAP-263; conditions: for IC50 / IC90: Leishmania infantum; for IC50 / Axenic Amastigotes IC50: 48 h, L. infantum axenic amastigotes, 37 °C; for IC90: L. infantum amastigotes, concentration used in the ROS assay; for IC50 when associated with mannitol, compared with IC50 alone: mannitol 50 µM, axenic amastigotes
[3] = test system: L. infantum promastigotes; assay: Antileishmanial activity on promastigotes (luciferase assay); format: cell-based, L. infantum strain MHOM/MA/67/ITMAP-263; conditions: Leishmania infantum, 72 h, 24 °C, mean of three independent experiments
[4] = test system: five human cancer cell lines (HCT116, CCRFCEM, DU145, Huh7, and A549); parameters: method as in PMID 28578580; conditions: read-out: IC50, antitumor activity; cited from earlier work
[5] = Cytotoxicity evaluation, MTT assay; format: cell-based; conditions: mouse, J774A.1 macrophage cells, mean of three independent experiments, read-out: J774A1 CC50
Description: After incubation for 24 h, 100 µL of medium with various concentrations of jacoumaric acid, carasolic acid, and appropriate controls (doxorubicin and amphotericin B, purchased from Sigma-Aldrich) were added and the plates were incubated for 72 h at 37 °C and 5% CO2. Each 96-well plate was then examined under a microscope to detect possible precipitate formation before the medium was aspirated from the well. 100 µL of MTT solution (0.5mg/mL in DMEM) was then added to each well. Cells were incubated for 2 h at 37 °C and 5% CO2. Then, the MTT solution was removed and DMSO (100 µL/well) was added to dissolve the resulting formazan crystals. Plates were shaken vigorously (300 rpm) for 5 min. The absorbance was measured at 570 nm with a microplate spectrophotometer (Eon Bio Tek, Winooski, VT, USA). DMSO was used as blank. […] (San Diego, CA, USA). CC50 values represent the mean value calculated from three independent experiments.

[6] = test system: L. infantum amastigotes; assay: Intracellular ROS generation, H2DCFDA assay; format: cell-based; conditions: axenic amastigotes treated 24 h at IC50 and IC90 concentrations
Description: The cells were then centrifuged, washed with PBS, resuspended in PBS, and incubated for 30 min in the dark with 10 µM H2DCFDA at 37 °C. ROS were measured as an increase in fluorescence caused by the conversion of non-fluorescent dye to highly fluorescence […] (excitation wavelength 490 nm, emission wavelength 525 nm) in a fluorescence microplate reader (SAFAS Xenius XM, Monaco, France).

[7] = test system: Leishmania; parameters: method as in PMID 15070160; conditions: cited from earlier work
[8] = test system: L. infantum amastigote; parameters: method as in PMID 29201107; conditions: cited from earlier work
[9] = test system: Leishmania amazonensis; parameters: method as in PMID 31269109; conditions: cited from earlier work
[10] = test system: Pyricularia pryzae; conditions: cited from earlier work

Compound: spergulin-A
- IC50, antileishmanial [1]: 6.22 µg/mL

Compound: C/C1=C\CC(C)(C)/C=C/CC2(C)Oc3c(C=O)c(O)c(C=O)c(O)c3C(c3ccccc3)C2CC1 (stereo not drawn) [Guajadial B (5), Guajadial B]
- IC50 [2]: > 50 µg/mL
- IC50 [3]: > 50 µg/mL
- IC50 [4]: 150 nM

Compound: COc1cccc2c1C(=O)c1c(O)c3c(c(O)c1C2=O)C[C@@](O)(C(=O)CO)C[C@@H]3O[C@H]1C[C@H](N)[C@H](O)[C@H](C)O1 [Doxorubicin, reference compound]
- CC50 at 72 h [5]: 0.04 ± 0.004 µg/mL (≈ 0.0736 µM)

Compound: C[C@H]1[C@H](C)CC[C@]2(C(=O)O)CC[C@]3(C)C(=CC[C@@H]4[C@@]5(C)C[C@@H](O)[C@H](O)C(C)(C)[C@@H]5CC[C@]43C)[C@H]12 [Corosolic acid (1), Corosolic acid (2α-hydroxyursolic acid)]
- Axenic Amastigotes IC50 [2]: 1.01 ± 0.06 µg/mL
- IC50 [2]: 1.06 µg/mL (≈ 2.24 µM)
- IC90 [2]: 1.43 µg/mL (≈ 3.03 µM)
- IC50 when associated with mannitol, compared with IC50 alone [2]: no significant differences
- IC50 [3]: 18.4 ± 1.2 µg/mL (≈ 39 µM)
- Production of ROS (H2DCFDA fluorescence) compared to the control [6]: significantly decreased
- CC50 at 72 h [5]: 5.77 ± 0.5 µg/mL (≈ 12.2 µM)

Compound: CC1CCC2(C(=O)O)CCC3(C)C(=CCC4C5(C)CC(O)C(OC(=O)/C=C/c6ccc(O)cc6)C(C)(C)C5CCC43C)C2C1C (stereo not drawn) [Jacoumaric acid (2), Jacoumaric acid]
- Axenic Amastigotes IC50 [2]: 1.32 ± 0.59 µg/mL
- IC50 [2]: 1.32 ± 0.59 µg/mL (≈ 2.13 µM)
- IC90 [2]: 1.9 µg/mL (≈ 3.07 µM)
- IC50 when associated with mannitol, compared with IC50 alone [2]: no significant differences
- IC50 [3]: > 50 µg/mL
- Production of ROS (H2DCFDA fluorescence) compared to the control [6]: significantly decreased
- CC50 at 72 h [5]: 12.9 ± 2.5 µg/mL (≈ 20.8 µM)

Compound: C[C@@H]1[C@H](O)[C@@H](C)/C=C/C=C/C=C/C=C/C=C/C=C/C=C/[C@H](O[C@@H]2O[C@H](C)[C@@H](O)[C@H](N)[C@@H]2O)C[C@@H]2O[C@](O)(C[C@@H](O)C[C@@H](O)[C@H](O)CC[C@@H](O)C[C@@H](O)CC(=O)O[C@H]1C)C[C@H](O)[C@H]2C(=O)O [Amphotericin B, reference compound]
- IC50 [2]: 0.09 ± 0.04 µg/mL (≈ 0.0974 µM)
- IC50 [3]: 0.09 ± 0.01 µg/mL (≈ 0.0974 µM)
- CC50 at 72 h [5]: 5.79 ± 0.65 µg/mL (≈ 6.27 µM)

Compound: C[C@H]1[C@H](C)CC[C@]2(C(=O)O)CC[C@]3(C)C(=CC[C@@H]4[C@@]5(C)CC[C@H](O)C(C)(C)[C@@H]5CC[C@]43C)[C@H]12 [ursolic acid]
- IC50, antileishmanial [7]: 27 µg/mL (≈ 59.1 µM)

Compound: CC1(C)CC[C@]2(C(=O)O)CC[C@]3(C)C(=CC[C@@H]4[C@@]5(C)CC[C@H](O)C(C)(C)[C@@H]5CC[C@]43C)[C@@H]2C1 [oleanoic acid]
- IC50 on L. infantum amastigote [8]: 2.91 ± 0.066 µg/mL (≈ 6.37 µM)

Compound: CC1(C)CC[C@]2(C(=O)O)CC[C@]3(C)C(=CC[C@@H]4[C@@]5(C)C[C@@H](O)[C@H](O)C(C)(C)[C@@H]5CC[C@]43C)[C@@H]2C1 [maslinic, maslinic acid]
- IC50 on L. infantum amastigote [8]: 0.99 ± 0.09 µg/mL (≈ 2.09 µM)

Compound: C=C1CC/C=C(\C)CC[C@@H]2[C@@H]1CC2(C)C [E-caryophyllene]
- IC50, antileishmanial [9]: 10.7 ± 0.6 µg/mL (≈ 52.4 µM)

Compound: CC1(C)CCC2(C(=O)O)CCC3(C)C(=CCC4C5(C)CC(O)C(O)C(C)(C(=O)O)C5CCC43C)C2C1 (stereo not drawn) [Medicagenic acid (6), Medicagenic acid]
- IC50 [2]: > 50 µg/mL
- IC50 [3]: > 50 µg/mL
- minimum fungicidal concentration (MFC) [10]: 30 µg/mL (≈ 59.7 µM)
- minimum inhibitory concentration (MIC) [10]: 10 µg/mL (≈ 19.9 µM)
